# Measurements taken from publication PMC6017089, “Discovery of a Manduca sexta Allatotropin Antagonist from a Manduca sexta Allatotropin Receptor Homology Model” (Molecules : A Journal of Synthetic Chemistry and Natural …, 2018).
# “And” between values parts separate entries of the source, which are not always exact repeats. Equal values may be shown once. “Also recorded” adds a separate entry of the source. Read-outs that look alike come from different tables or passages of the source. Non-standard residues stand in square brackets, D forms with d. Residues, ends and D or L forms follow the SMILES beside them. No end group written: not given here. *: point of attachment. Phe(4-Cl) = N[C@@H](Cc1ccc(Cl)cc1)C(=O)O; Phe(4-Me) = Cc1ccc(C[C@H](N)C(=O)O)cc1; Ala(cPr) = N[C@@H](CC1CC1)C(=O)O; Isobutyryl = CC(C)C(=O)*
# Key:
# [1] = biological target: T1, corpora allata (CA) of adult female M. sexta stimulated with Manse-AT (Manduca sexta, UniProt F1CZQ1); format: cell-based
# T1 sequence (F1CZQ1 1-457): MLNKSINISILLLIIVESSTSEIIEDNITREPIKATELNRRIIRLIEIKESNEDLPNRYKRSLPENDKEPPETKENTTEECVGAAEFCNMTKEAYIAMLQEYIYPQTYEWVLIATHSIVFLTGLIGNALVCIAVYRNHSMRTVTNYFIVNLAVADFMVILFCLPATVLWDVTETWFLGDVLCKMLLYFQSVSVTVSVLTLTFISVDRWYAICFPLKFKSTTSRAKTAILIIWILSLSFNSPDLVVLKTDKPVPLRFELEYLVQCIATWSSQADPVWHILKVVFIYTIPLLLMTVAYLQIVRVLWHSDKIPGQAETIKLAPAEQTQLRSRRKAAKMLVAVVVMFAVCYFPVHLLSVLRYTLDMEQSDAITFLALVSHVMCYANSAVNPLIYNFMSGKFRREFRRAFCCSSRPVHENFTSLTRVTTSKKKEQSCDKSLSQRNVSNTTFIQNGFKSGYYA
# Protocol: (§1) On the day of adult emergence (day 0), females were marked and maintained in the wooden chamber until used. The assays for JH biosynthesis were performed using CA from day 3 females. A pair of CA with corpora cardiaca attached were incubated for 3 h at 30 °C in 100 µL of medium 199 (GIBCO) with Hanks’ salts, L-glutamine, 25 mM HEPES buffer (pH 7.2) and 2% Ficoll in the dark with gentle shaking. Compounds were dissolved in medium 199 for assay as described previously and used on the same day that the peptides were prepared. After incubation, 200 µl n-hexane containing 20 ng of citronellol as an internal standard was mixed with the incubation medium and the mixture was centrifuged at 2500× g for 5 min. The organic phases (upper layer) were removed and transferred to the analyzed vials. For M. sexta, it is known that JH II and JH III are predominantly made in adult (they contribute 99% of total JH, together). The change of total JH II and JH III titer was used to estimate the effects of JH biosynthesis in this study. The quantitative assay for JH II and JH III titer was determined by GC-MS/MS as described previously. The retention time of JH II and JH III was 11.16 min and 10.36 min, respectively. The quantification transition for JH II was 107→105.4 (collsion energy: 45 eV). Its confirmation transitions were 81→79.6 (collsion energy: 40 eV), 121→119 (collsion energy: 40 eV), 121→104.9 (collsion energy: 15 eV) and 121→92.9 (collsion energy: 10 eV), respectively. For JH III, the quantification transition was […] (collsion energy: 10 eV), the confirmation transitions were 81→79.1 (collsion energy: 5 eV), 94.9→67.1 (collsion energy: 10 eV), 120.9→93 (collsion energy: 10 eV) and 120.9→105.1 (collsion energy: 15 eV), respectively. Compounds were dissolved in medium 199 for assay and used on the same day that the peptides were prepared. Each data point on the dose-response figure represents replicate incubations of 9–13 experimental CA compared to control CA (i.e., no peptide added). EC50 (stimulator concentration50 defined as the concentration of stimulator that provokes a response halfway between the baseline and maximum response) values of Manse-AT and analogs were calculated from the dose-response curves.
# Antagonistic effects of Manse-AT antagonists were measured with the compound mixture solutions (varying concentrations of the antagonist added together with Manse-AT) compared with the stimulation effects of Manse-AT. Dose response curves of antagonist on the inhibition of JH stimulation of Manse-AT was obtained using different concentrations of antagonist mixed with 1 nM Manse-AT (Supplementary Materials, Figure S1). Each data point on the dose-response figure was calculated using the Formula (1). (RManse-AT − RMixture)/(RManse-AT − RControl) (1)
# RManse-AT is the average JH biosynthesis rate of 1 nM Manse-AT, RMixture is the rate of mixture contained different concentration antagonist and 1 nM Manse-AT, RControl is the average rate of medium without any peptides.
# (§2) Data presented as percentages were log-transformed before statistical analyses. Data were analysed using a one-way analysis of variance (ANOVA) with a Dunnett’s multiple comparison test as the post hoc determination of significance using Prism Graph Pad version 5.0 (GraphPad Software, San Diego, CA, USA). Dose-response curves were also prepared using the computer program GraphPad Prism. Values are expressed as mean ± standard errors (S.E.M.) with N indicating the number of samples measured.
# [2] = biological target: T2, corpora allata (CA) of adult female M. sexta (Manduca sexta, UniProt F1CZQ1); test: Stimulation of JH biosynthesis in vitro by corpora allata; format: cell-based; settings: for Stimulation of JH Biosynthesis EC50 (95% CI) / EC50: pair of CA with corpora cardiaca from day 3 females, 3 h at 30 °C in medium 199 pH 7.2, total JH II + JH III by GC-MS/MS, 9–13 repeats per concentration, 95% CI in brackets; for Stimulation of JH Biosynthesis: Stimulation at 1 μM: peptide 1 μM, CA from day 3 females, 3 h at 30 °C, mean ± SEM, repeat number in brackets, versus control CA without peptide; for fold less potent than Manse-AT (EC50, stimulation of JH biosynthesis): ratio of EC50 values to Manse-AT
# T2 sequence (F1CZQ1 1-457): T1 sequence (F1CZQ1 1-457)
# Protocol: as §1, §2
# [3] = read-out: Antagonistic Effects on JH Biosynthesis IC50 (95% CI); antagonist at varying concentrations mixed with 1 nM Manse-AT; CA from day 3 females, 3 h at 30 °C; JH II + JH III by GC-MS/MS; 9–13 repeats per concentration; 95% CI in brackets
# [4] = ratio of IC50 values to Manse-AT (10–13)
# [5] = antagonist at varying concentrations mixed with 1 nM Manse-AT; CA from day 3 females, 3 h at 30 °C; JH II + JH III by GC-MS/MS; 9–13 repeats per concentration; 95% CI in brackets
molecule,measurement,setting,value
C[C@H](N)C(=O)N[C@@H](CCCNC(=N)N)C(=O)NCC(=O)N[C@@H](Cc1ccccc1)C(N)=O [Manse-AT (10–13)] (H-ARGF-NH2),IC50,[1]; [3],0.0009 µM
same,Stimulation of JH Biosynthesis EC50 (95% CI),[2],cannot be calculated; also recorded: No effect
same,Stimulation of JH Biosynthesis: Stimulation at 1 μM,[2],8.1± 17.6 (13) %
N=C(N)NCCC[C@H](NC(=O)CN)C(=O)NCC(=O)N[C@@H](Cc1ccccc1)C(N)=O [analog 1] (H-GRGF-NH2),IC50,[1]; [3],0.0012 µM
CC(C)C[C@H](N)C(=O)N[C@@H](CCCNC(=N)N)C(=O)NCC(=O)N[C@@H](Cc1ccccc1)C(N)=O [analog 2] (H-LRGF-NH2),IC50,[1]; [3],0.0354 µM
CC(C)C(=O)N[C@@H](CCCNC(=N)N)C(=O)NCC(=O)N[C@@H](Cc1ccccc1)C(N)=O [analog 3] (Isobutyryl-Arg-Gly-Phe-NH2),IC50,"[1]; antagonist at varying concentrations mixed with 1 nM Manse-AT; CA from day 3 females, 3 h at 30 °C; JH II + JH III by GC-MS/MS; 9–13 repeats per concentration; 95% CI in brackets; read-out: Antagonistic Effects on JH Biosynthesis IC50 (95% CI)",0.0261 µM
same,"fold less active than the lead Manse-AT (10–13) (IC50, antagonistic effect)",[1]; [4],~30 fold
C[C@H](N)C(=O)N[C@@H](CCCNC(=N)N)C(=O)N[C@@H](C)C(=O)N[C@@H](Cc1ccccc1)C(N)=O [analog 7] (H-ARAF-NH2),IC50,[1]; [3],0.0175 µM
C[C@H](N)C(=O)N[C@@H](CCCNC(=N)N)C(=O)N[C@@H](CC1CC1)C(=O)N[C@@H](Cc1ccccc1)C(N)=O [analog 8] (H-AR[Ala(cPr)]F-NH2),"fold less active than the lead Manse-AT (10–13) (IC50, antagonistic effect)",[1]; [4],~1145 fold
C[C@H](N)C(=O)N[C@@H](CCCNC(=N)N)C(=O)NCC(=O)N[C@@H](Cc1ccc(O)cc1)C(N)=O [analog 10] (H-ARGY-NH2),IC50,[1]; [3],0.001 µM
Cc1ccc(C[C@H](NC(=O)CNC(=O)[C@H](CCCNC(=N)N)NC(=O)[C@H](C)N)C(N)=O)cc1 [analog 11] (H-ARG[Phe(4-Me)]-NH2),IC50,[1]; [3],0.0084 µM
C[C@H](N)C(=O)N[C@@H](CCCNC(=N)N)C(=O)NCC(=O)N[C@@H](Cc1ccc(Cl)cc1)C(N)=O [analog 12] (H-ARG[Phe(4-Cl)]-NH2),IC50,[1]; [3],0.0094 µM
AMMTARGF-NH2 [Manse-AT (6–13) [Ala^1]],Stimulation of JH biosynthesis at 10 µM,"[2]; concentration of 10 µM, adult female CA in vitro",completely inactive
same,Stimulation of JH Biosynthesis EC50 (95% CI),[2],No effect
"Ala-Ala-Gly-Phe-NH2 [analog 5, Manse-AT (10–13) analog, Arg replaced with Ala]",Antagonistic Effects on JH Biosynthesis IC50 (95% CI),[1]; [5],no antagonistic effect
"Ala-Arg-Gly-Ala-NH2 [analog 9, Manse-AT (10–13) analog, Phe replaced with Ala]",Antagonistic Effects on JH Biosynthesis IC50 (95% CI),[1]; [5],inactive; also recorded: No effect
"Ala-Leu-Gly-Phe-NH2 [analog 6, Manse-AT (10–13) analog, Arg replaced with Leu]",Antagonistic Effects on JH Biosynthesis IC50 (95% CI),[1]; [5],no antagonistic effect
"Arg-Gly-Phe-NH2 [Manse-AT (11–13), truncated tripeptide analog of Manse-AT]",Antagonistic Effects on JH Biosynthesis IC50 (95% CI),[1]; [5],did not possess any antagonistic effect; also recorded: No effect
same,Stimulation of JH Biosynthesis EC50 (95% CI),[2],cannot be calculated; also recorded: No effect
same,Stimulation of JH Biosynthesis: Stimulation at 1 μM,[2],8.3 ± 16.4 (9) %
"GFKNVEMMTARGF-NH2 [Manse-AT, Manduca sexta allatotropin]",EC50,[2],0.0009 µM
same,Stimulation of JH Biosynthesis: Stimulation at 1 μM,[2],426.6 ± 86.3 (9) %
H-EMMTARGF-NH2 [Manse-AT (6–13)],EC50,[2],0.0184 µM
same,Stimulation of JH Biosynthesis: Stimulation at 1 μM,[2],600% and 600.5 ± 98.5 (9) %
same,"fold less potent than Manse-AT (EC50, stimulation of JH biosynthesis)",[2],about 20 fold
H-MMTARGF-NH2 [Manse-AT (7–13)],EC50,[2],0.18 µM and 0.228 µM
same,Stimulation of JH Biosynthesis: Stimulation at 1 μM,[2],232.9% and 232.9 ± 33.7 (9) %
same,"fold less potent than Manse-AT (EC50, stimulation of JH biosynthesis)",[2],200 fold
H-MTARGF-NH2 [Manse-AT (8–13)],EC50,[2],2.49 µM
same,Stimulation of JH Biosynthesis: Stimulation at 1 μM,[2],133.1 ± 22.3 (9) %
"TARGFa [Manse-AT (9–13), truncated analog of Manse-AT]",Stimulation of JH Biosynthesis EC50 (95% CI),[2],cannot be calculated; also recorded: No effect
same,Stimulation of JH Biosynthesis: Stimulation at 1 μM,[2],10.6 ± 21.0 (11) %
